PMC9822021, “Biological Activity of Amidino-Substituted Imidazo [4,5-b]pyridines” (Molecules, 2022)

How the values were obtained:
HCoV 229E = assay: Antiviral CPE reduction assay; format: cell-based; details: Human coronavirus 229E, HEL 299 cells
HCoV OC43 = assay: Antiviral CPE reduction assay; format: cell-based, human coronavirus OC43; details: Betacoronavirus 1, OC43, HEL 299 cells
HCoV NL63 = assay: Antiviral CPE reduction assay; format: cell-based; details: Human coronavirus NL63, Huh-7, Huh7 cells
RSV A Long = assay: Antiviral CPE reduction assay; format: cell-based, respiratory syncytial virus A; details: human respiratory syncytial virus, HEL 299 cells
YFV 17D = assay: microbe, parasite or virus in culture; format: cell-based; details: Yellow fever virus, Huh-7, read-out: EC50 YFV 17D Huh7
Zika mr766 = assay: Antiviral CPE reduction assay; format: cell-based; details: Zika virus, Huh-7, Huh7 cells
Sindbis = assay: Antiviral CPE reduction assay; format: cell-based; details: Sindbis virus, Huh-7, Huh7 cells
in vitro [1] = details: human
in vitro [2] = details: human; remark: listed apart in the source
[3] = tested on: Influenza H1N1 (A/Ned/378/05); assay: Antiviral CPE reduction assay; format: cell-based; details: Influenza A virus, MDCK cells
[4] = tested on: Influenza H3N2 (A/HK/7/87); assay: Antiviral CPE reduction assay; format: cell-based; details: Influenza A virus, MDCK cells
[5] = tested on: Influenza B (B/Ned/537/05); assay: Antiviral CPE reduction assay; format: cell-based; details: Influenza B virus, MDCK cells
in vitro [6] = details: dog
[7] = tested on: HCT-116 colorectal carcinoma cells; assay: In vitro antiproliferative activity, MTS proliferation assay; format: cell-based; details: Homo sapiens, 72 h
From the text: (§1) Human cancer cell lines used in this manuscript, namely Capan-1, HCT-116, NCI-H460, LN-229, HL-60, K-562, Z-138, SW620, PC3 and HeLa, were acquired from the American Type Culture Collection (ATCC, Manassas, VA, USA), while the DND-41 cell line was purchased from the Deutsche Sammlung von Mikroorganismen und Zellkulturen (DSMZ Leibniz-Institut, Germany). Culture media were purchased from Gibco Life Technologies, USA, and supplemented with 10% fetal bovine serum (HyClone, GE Healthcare Life Sciences, Chicago, IL, USA), except for the media for SW620, PC3 and HeLa cells, which were purchased from Sigma.
(§2) Adherent cell lines LN-229, HCT-116, NCI-H460 and Capan-1 cells were seeded at a density between 500 and 1500 cells per well in 384-well tissue culture plates (Greiner). […]. Cells were incubated for 72 h with compounds and were then analyzed using the CellTiter 96® AQueous One Solution Cell Proliferation Assay (MTS) reagent (Promega) according to the manufacturer’s instructions. Absorbance of the samples was measured at 490 nm using a SpectraMax Plus 384 (Molecular Devices), and OD values were used to calculate the 50% inhibitory concentration (IC50). Compounds were tested in two independent experiments. SW620, PC3 and HeLa cells were seeded in 96-well microtiter plates at 1 × 10^4 to 3 × 10^4 cells/mL, depending on the doubling times of the specific cell line. Test agents were then added in five 10-fold dilutions (10^−8 to 10^−4 M). Working dilutions were freshly prepared on the day of testing. After 72 h of incubation, the cell growth rate was evaluated using the MTT assay as described previously. Absorbance of the samples was measured at 570 nm, and OD values were used to calculate the 50% inhibitory concentration (IC50). Each test was performed in quadruplicate in at least two individual experiments.

[8] = tested on: K-562 chronic myeloid leukemia cells; assay: as above; format: cell-based; details: Homo sapiens, K562, 72 h
From the text: as §1, §2

[9] = tested on: LN-229 glioblastoma cells; assay: as above; format: cell-based; details: Homo sapiens, 72 h
From the text: as §1, §2

[10] = tested on: NCI-H460 lung carcinoma cells; assay: as above; format: cell-based; details: Homo sapiens, 72 h
From the text: as §1, §2

[11] = tested on: Capan-1 pancreatic adenocarcinoma cells; assay: as above; format: cell-based; details: Homo sapiens, 72 h
Protocol: (§3) Culture media were purchased from Gibco Life Technologies, USA, and supplemented with 10% fetal bovine serum (HyClone, GE Healthcare Life Sciences, Chicago, IL, USA), except for the media for SW620, PC3 and HeLa cells, which were purchased from Sigma.
(§4) Cells were incubated for 72 h with compounds and were then analyzed using the CellTiter 96® AQueous One Solution Cell Proliferation Assay (MTS) reagent (Promega) according to the manufacturer’s instructions. […] Compounds were tested in two independent experiments. SW620, PC3 and HeLa cells were seeded in 96-well microtiter plates at 1 × 10^4 to 3 × 10^4 cells/mL, depending on the doubling times of the specific cell line. Test agents were then added in five 10-fold dilutions (10^−8 to 10^−4 M). Working dilutions were freshly prepared on the day of testing. After 72 h of incubation, the cell growth rate was evaluated using the MTT assay as described previously. […] Each test was performed in quadruplicate in at least two individual experiments.

[12] = tested on: DND-41 acute lymphoblastic leukemia cells; assay: as above; format: cell-based; details: Homo sapiens, DND41, 72 h
Protocol: as §3, §4

[13] = tested on: HL-60 acute myeloid leukemia cells; assay: as above; format: cell-based; details: Homo sapiens, 72 h
Protocol: as §3, §4

[14] = tested on: Z-138 non-Hodgkin lymphoma cells; assay: as above; format: cell-based, human; details: Homo sapiens, Z-138, 72 h
From the text: as §1, §2

[15] = tested on: HeLa cervical carcinoma cells; assay: In vitro antiproliferative activity, MTT assay; format: cell-based; details: Homo sapiens, 72 h
From the text: as §1, §2

[16] = tested on: PC3 prostate carcinoma cells; assay: In vitro antiproliferative activity, MTT assay; format: cell-based; details: Homo sapiens, 72 h
From the text: as §1, §2

[17] = tested on: SW620 colon carcinoma cells; assay: In vitro antiproliferative activity, MTT assay; format: cell-based; details: Homo sapiens, SW-620, 72 h
From the text: as §1, §2

E. coli ATCC 25922 = assay: Antibacterial activity in vitro, broth microdilution; format: cell-based; details: Escherichia coli, ATCC25922; broth microdilution (CLSI), 16–24 h at 37 °C
Protocol: (§5) Synthesized compounds were prepared as 10 mM DMSO solutions and tested in a final concentration range of 100–0.2 µM [34].
(§6) Broth microdilution testing was performed according to CLSI (Clinical Laboratory Standards Institute) guidelines. MIC (minimal inhibitory concentration) values were defined as the last tested concentration of the compound at which there was no visible growth of bacteria. Inoculums for each microorganism were prepared using the direct colony suspension method, where broth solutions that achieved turbidity equivalent to 0.5 McFarland standard were additionally diluted 100× with Ca-adjusted MH media (Becton Dickinson).

S. Pneumoniae ATCC 49619 = assay: as above; format: cell-based; details: Streptococcus pneumoniae, ATCC49619; broth microdilution (CLSI), 16–24 h at 37 °C
Protocol: as §5, §6

S. aureus ATCC 29213 = assay: as above; format: cell-based; details: Staphylococcus aureus, ATCC29213; broth microdilution (CLSI), 16–24 h at 37 °C
Protocol: as §5, §6

E. coli Efflux Del = assay: microbe, parasite or virus in culture; format: cell-based; details: Escherichia coli, read-out: MIC E. coli Efflux Del
Protocol: as §5, §6

HSV-1 KOS = assay: Antiviral CPE reduction assay; format: cell-based, herpes simplex virus-1; details: Human alphaherpesvirus 1

Structure (SMILES) | EC50 (HCoV 229E) [µM] | EC50 (HCoV OC43) [µM] | EC50 (HCoV NL63) [µM] | EC50 (YFV 17D) [µM] | EC50 (Zika mr766) [µM] | CC50 (in vitro [1]) [µM] | CC50 (in vitro [2]) [µM] | EC50 [3] [µM] | EC50 [4] [µM] | EC50 [5] [µM] | CC50 (in vitro [6]) [µM] | MIC (E. coli ATCC 25922) [µM] | MIC (S. Pneumoniae ATCC 49619) [µM] | MIC (S. aureus ATCC 29213) [µM] | MIC (E. coli Efflux Del) [µM] | melting point [°C] | also measured
CCC(CC)COC(=O)[C@H](C)N[P@](=O)(OC[C@H]1O[C@@](C#N)(c2ccc3c(N)ncnn23)[C@H](O)[C@@H]1O)Oc1ccccc1 [Remdesivir, remdesivir, reference compound] | 0.06 | 0.06 | 0.03 | 6.2 | 0.7 | > 10 | > 10 |  |  |  |  |  |  |  |  |  | EC50 (RSV A Long; CPE reduction): 0.03 ± 0.01 µM; EC50 (Sindbis): > 10 µM
CC(=O)N[C@H]1[C@H]([C@H](O)[C@H](O)CO)OC(C(=O)O)=C[C@@H]1N=C(N)N [Zanamivir, zanamivir, reference compound] |  |  |  |  |  |  |  | 0.13 ± 0.04 | 16.8 ± 6.8 | 0.05 ± 0.03 | > 100 |  |  |  |  |  | 
Cl.N=C(N)c1ccc(-c2nc3ncccc3[nH]2)cc1 [Compound 9, 4-(1H-Imidazo[4,5-b]pyridin-2-yl)benzimidamide Hydrochloride] |  |  |  |  |  | > 100 | > 100 |  |  |  | > 100 | > 64 | > 64 | > 64 | > 64 | > 300 | IC50 [7]: > 100 µM; IC50 [8]: > 100 µM; IC50 [9]: > 100 µM; IC50 [10]: > 100 µM; IC50 [11]: > 100 µM; IC50 [12]: > 100 µM; IC50 [13]: > 100 µM; IC50 [14]: > 100 µM; IC50 [15]: > 100 µM; IC50 [16]: > 100 µM; IC50 [17]: > 100 µM
Brc1cnc2nc(-c3ccccc3)[nH]c2c1 [Compound 7, 6-Bromo-2-phenyl-1H-imidazo[4,5-b]pyridine] | > 100 | > 100 | > 100 | > 100 | > 100 | > 100 | > 100 | > 100 | > 100 | > 100 | > 100 | > 64 | > 64 | > 64 | > 64 | > 300 | EC50 (RSV A Long; HEL 299, CPE reduction): 21 ± 5.9 µM; EC50 (HSV-1 KOS): > 100 µM; EC50 (Sindbis): > 100 µM
O=c1[nH]c(=O)n([C@H]2C[C@H](O)[C@@H](CO)O2)cc1/C=C/Br [BVDU, brivudine, reference compound] |  |  |  |  |  |  |  |  |  |  | > 100 |  |  |  |  |  | EC50 (HSV-1 KOS): 0.05 µM
Cn1c(-c2ccccc2)nc2cc(Br)cnc21 [Compound 18, 6-Bromo-3-methyl-2-phenyl-3H-imidazo[4,5-b]pyridine] |  |  |  |  |  | > 100 | > 100 |  |  |  | > 100 | > 64 | > 64 | > 64 | > 64 | 214 to 215 | IC50 [7]: > 100 µM; IC50 [8]: > 100 µM; IC50 [9]: > 100 µM; IC50 [10]: > 100 µM; IC50 [11]: > 100 µM; IC50 [12]: > 100 µM; IC50 [13]: > 100 µM; IC50 [14]: > 100 µM; IC50 [15]: 48 ± 0.2 µM; IC50 [16]: > 100 µM; IC50 [17]: > 100 µM
NC(=O)c1ncn([C@@H]2O[C@H](CO)[C@@H](O)[C@H]2O)n1 [Ribavirin, ribavirin, reference compound] | 82.6 | 170 | > 250 | > 250 | > 250 |  |  | 10.5 ± 3.8 | 4 ± 2.7 | 2.8 ± 1.8 | 80.2 ± 18.6 |  |  |  |  |  | EC50 (RSV A Long; HEL 299, CPE reduction): 10.8 ± 2.1 µM
